Assay: Involuntary cough on administration of the active agent
Format: in vivo

## CN(C)CCCN1c2ccccc2CCc2ccc(Cl)cc21 [clomipramine]
Administered via an alternative route to pulmonary inhalation
  cough: the cough is not induced
Administered via pulmonary inhalation
  involuntary cough: induces an involuntary cough
